Test results from PubChem BioAssay (NCI).
Where “and” joins values, the source holds several entries; their conditions need not be identical. Identical values can stand only once.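 Tested at 5 concentrations; 48 h exposure; 96-well plates; endpoints linearly interpolated, else capped at highest concentration. At the GI50, growth is halved. At the TGI there is no net growth.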

Columns and labels:
Assay in all cases: NCI-60 cell line screen, 48 h
CCRF-CEM leukemia = system: CCRF-CEM leukemia
HCT-116 colon = system: HCT-116 colon
HOP-62 NSCLC = system: HOP-62 NSCLC
HT29 colon = system: HT29 colon
M14 melanoma = system: M14 melanoma
MOLT-4 leukemia = system: MOLT-4 leukemia
OVCAR-3 ovarian = system: OVCAR-3 ovarian
OVCAR-8 ovarian = system: OVCAR-8 ovarian
TK-10 renal = system: TK-10 renal
U251 CNS = system: U251 CNS

Compound | GI50 (CCRF-CEM leukemia) | TGI (CCRF-CEM leukemia) | GI50 (HCT-116 colon) | TGI (HCT-116 colon) | GI50 (HOP-62 NSCLC) | TGI (HOP-62 NSCLC) | GI50 (HT29 colon) | TGI (HT29 colon) | GI50 (M14 melanoma) | TGI (M14 melanoma) | GI50 (MOLT-4 leukemia) | TGI (MOLT-4 leukemia) | GI50 (OVCAR-3 ovarian) | TGI (OVCAR-3 ovarian) | GI50 (OVCAR-8 ovarian) | TGI (OVCAR-8 ovarian) | GI50 (TK-10 renal) | TGI (TK-10 renal) | GI50 (U251 CNS) | TGI (U251 CNS)
COc1cc2nccc(Oc3ccc(NC(=O)C4(C(=O)Nc5ccc(F)cc5)CC4)cc3)c2cc1Oc1ccc(N)cn1 | 3.95 µM | > 100 µM | 3.33 µM | > 100 µM | 2.83 µM | 84.3 µM | 1.92 µM | 7.6 µM | 2.66 µM | 34.8 µM | 3.12 µM | > 100 µM | 3.68 µM | > 100 µM | 3.77 µM | > 100 µM | 3.65 µM | > 100 µM | 2.82 µM | 16.6 µM
C[C@]12CCc3nonc3C1CC[C@@H]1C2CC[C@]2(C)NC(=O)CCC12 (some centres undefined) | – | > 100 µM | – | > 100 µM | – | > 100 µM | – | > 100 µM | – | > 100 µM | – | > 100 µM | – | > 100 µM | – | > 100 µM | – | > 100 µM | – | > 100 µM
CC(=O)c1cc2c(cc1Nc1c3ccccc3nc3occ(Cl)c13)OCO2 | 0.0468 µM | 0.291 µM | 0.246 µM | 1.07 µM | 0.291 µM | > 65.1 µM | 0.439 µM | > 100 µM | 0.316 µM | 37.9 µM | 0.198 µM | > 100 µM | 0.0725 µM | 0.178 µM | 0.205 µM | 0.766 µM | 0.409 µM | > 100 µM | 0.35 µM | > 100 µM
CC(=O)O[C@H](C[C@H](C(C)C)N(C)C(=O)[C@@H](NC(=O)[C@H]1CCCCN1C)C(C)C)c1nc(C(=O)N[C@@H](Cc2ccccc2)C[C@H](C)C(=O)O)c(C(C)C)s1 | < 0.00333 µM | > 33.3 µM | < 0.00333 µM | 0.773 µM | < 0.00333 µM | > 33.3 µM | < 0.00333 µM | > 33.3 µM | < 0.00333 µM | 0.161 µM | < 0.00333 µM | > 33.3 µM | < 0.00333 µM | 0.00598 µM | < 0.00333 µM | > 33.3 µM | 0.475 µM | > 33.3 µM | < 0.00333 µM | > 33.3 µM
O=C1c2ccccc2C(=O)c2c(NCCNCCO)ccc(O)c21 | – | 17.3 µM | – | 12.9 µM | – | 14.5 µM | – | 10.2 µM | – | 15.8 µM | – | 7.49 µM | – | 19.5 µM | – | 13.5 µM | – | 15.3 µM | – | 14.7 µM
COc1ccc2c(c1)C(=O)C(=O)c1cc(O)c(OC)c(OC)c1-2 | 0.451 µM | 2.65 µM and 2.92 µM | 1.72 µM | 1.6 µM and 3.09 µM | 1.15 µM | 1.72 µM and 2.58 µM | – | 3.83 µM | 1.73 µM | 1.71 µM and 3.11 µM | 2.38 µM | 0.746 µM and 5.74 µM | 1.65 µM | 3.63 µM and 3.11 µM | 1.62 µM | 1.6 µM and 2.98 µM | 1.69 µM | 1.77 µM and 3.05 µM | 1.78 µM | 1.64 µM and 3.16 µM
O=C(CF)N(O)c1ccc(/C=C/c2ccccc2)cc1 | 2.16 µM | > 100 µM | 0.805 µM | 6.63 µM | 5.91 µM | 32.2 µM | 3.52 µM | > 100 µM | 3.82 µM | > 100 µM | 2.72 µM | > 100 µM | 3.28 µM | 19.7 µM | 2.77 µM | > 96.2 µM | 3.38 µM | 27.5 µM | 1.82 µM | > 60 µM
O=C(Nc1cccc(Oc2nnc(Cl)c3ccccc23)c1)Nc1ccc(Cl)c(C(F)(F)F)c1 | 0.208 µM | 17.5 µM | 1.05 µM | 3.51 µM | 1.98 µM | 5.75 µM | 0.771 µM | 3.14 µM | 0.707 µM | 3.16 µM | 0.494 µM | 4.18 µM | 0.773 µM | 4.46 µM | 1.3 µM | 9.5 µM | 2.32 µM | 6.55 µM | 1.31 µM | 3.93 µM
CC(C)(C)c1[nH]cnc1/C=c1\[nH]c(=O)/c(=C/c2ccccc2)[nH]c1=O | < 0.01 µM | > 68.4 µM | < 0.01 µM | 15.4 µM | < 0.01 µM | 25.8 µM | < 0.01 µM | 9.44 µM | < 0.01 µM | 17.1 µM | 0.0215 µM | 19.7 µM | < 0.01 µM | 19.2 µM | < 0.0125 µM | 50.8 µM | 14.1 µM | > 100 µM | < 0.01 µM | 43.9 µM
CC(=O)OCC(=O)O[C@@H]1C[C@]2(C(C)C)O[C@@]1(C)[C@@H]1CC[C@@H](C)[C@H]1[C@@H]2OC(=O)/C=C/c1ccccc1 | 21.3 µM | > 100 µM | 16.1 µM | > 100 µM | 17.3 µM | 45.2 µM | 23.6 µM | > 100 µM | 26.3 µM | > 100 µM | 20.3 µM | > 100 µM | 32.8 µM | > 100 µM | 0.0747 µM | > 56.3 µM | 15.5 µM | 39.7 µM | 16.7 µM | 50.3 µM
Oc1c(CN2CCCC2)cc(COCc2ccc(Br)cc2)c2cccnc12 | 0.443 µM | 2.65 µM | 0.365 µM | 3.56 µM | 0.362 µM | 2.3 µM | 3.53 µM | 13.2 µM | 0.36 µM | 1.77 µM | 0.495 µM | 2.67 µM | 0.413 µM | 1.87 µM | 0.398 µM | 1.94 µM | 0.474 µM | 10.3 µM | 0.525 µM | 2.78 µM
Cc1c(C(=O)C/C(=N/NC(=O)C[n+]2ccccc2)C(=O)Nc2ccccc2)[n+](=O)c2ccccc2n1O | – | > 100 µM | – | > 100 µM | – | > 100 µM | – | > 100 µM | – | > 100 µM | – | > 100 µM | – | > 100 µM | – | > 100 µM | – | > 100 µM | – | > 100 µM
O=C(O)CCC(=O)c1ccc2ccc3cccc4ccc1c2c34 | – | > 100 µM | – | > 100 µM | – | > 100 µM | – | > 100 µM | – | > 100 µM | – | > 100 µM | – | > 100 µM | – | > 100 µM | – | > 100 µM | – | > 100 µM
O=c1cccccc1NCCCCCCNc1cccccc1=O | – | > 100 µM | – | > 100 µM | – | > 100 µM | – | > 100 µM | – | > 100 µM | – | > 100 µM | – | > 100 µM | – | > 100 µM | – | > 100 µM | – | > 100 µM
